Measurements as given in paper PMC12669672, “Structural insights into selective and dual antagonism of EP2 and EP4 prostaglandin receptors” (The EMBO Journal, 2025).
Where “and” joins values, the source holds several entries; their conditions need not be identical. Equal values may be shown once. Read-outs that look alike come from different tables or passages of the source.

What was measured:
Assay type in all cases: cell-based
EP4 WT = molecular target: T1, EP4 WT (Homo sapiens, UniProt P35408); assay: GloSensor cAMP assay, antagonism of PGE2-induced cAMP; conditions: for remaining activity at 100 µM / remaining activity at […] / remaining activity at 0.1585 µM / remaining activity at 0.03236 µM / remaining activity at 0.006457 µM / remaining activity at 0.001288 µM: 1 h
T1 construct: The full-length EP2 or EP4 was cloned into the pcDNA3.1 vector; FLAG (N); expressed in transfected cells; host or cells: AD293 cells
T1 sequence (P35408 whole entry): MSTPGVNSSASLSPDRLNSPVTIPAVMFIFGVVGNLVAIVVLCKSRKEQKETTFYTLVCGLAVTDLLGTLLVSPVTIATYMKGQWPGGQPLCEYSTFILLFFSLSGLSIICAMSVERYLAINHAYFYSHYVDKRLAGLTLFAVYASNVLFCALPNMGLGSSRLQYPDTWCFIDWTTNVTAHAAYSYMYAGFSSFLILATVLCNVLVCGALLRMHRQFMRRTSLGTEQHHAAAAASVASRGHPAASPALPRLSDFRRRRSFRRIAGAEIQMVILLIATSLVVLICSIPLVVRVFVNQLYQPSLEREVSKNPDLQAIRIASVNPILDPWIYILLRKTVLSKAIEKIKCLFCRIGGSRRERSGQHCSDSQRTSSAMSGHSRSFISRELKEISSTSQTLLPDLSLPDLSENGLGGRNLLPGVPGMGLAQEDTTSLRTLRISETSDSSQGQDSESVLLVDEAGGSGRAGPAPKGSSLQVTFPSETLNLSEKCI
Protocol: (§1) The full-length EP2 or EP4 was cloned into the pcDNA3.1 vector (Invitrogen), incorporating an N-terminal FLAG tag. AD293 cells were seeded in six-well plates containing DMEM supplemented with 10% dialyzed FBS 1 day prior to transfection. Following overnight growth, cells were transfected with a 1:1 ratio of receptor construct and GloSensor22F cAMP biosensor (Promega) plasmids.
(§2) Twenty-four hours post-transfection, the cells were transferred to CO2-independent media containing 2% GloSensor cAMP Reagent (Promega) and distributed into 384-well assay plates at a density of 4000 cells per well in 10 μL. […] The plates were then incubated at 37 °C for an additional hour before luminescence measurements were taken using an EnVision plate reader.
(§3) Data analysis was performed using GraphPad Prism software v8.0.1. A nonlinear regression analysis, employing a sigmoidal dose–response model, was conducted to determine the Emax values and half-maximum inhibitory concentrations (IC50) for each compound tested.

[1] = molecular target: T2, constitutively active EP2 M116A (Homo sapiens, UniProt P43116, M116A); assay: GloSensor cAMP assay, inhibition of constitutive activity
T2 construct: The full-length EP2 or EP4 was cloned into the pcDNA3.1 vector; FLAG (N); expressed in transfected cells; host or cells: AD293 cells
T2 sequence (P43116 whole entry M116A): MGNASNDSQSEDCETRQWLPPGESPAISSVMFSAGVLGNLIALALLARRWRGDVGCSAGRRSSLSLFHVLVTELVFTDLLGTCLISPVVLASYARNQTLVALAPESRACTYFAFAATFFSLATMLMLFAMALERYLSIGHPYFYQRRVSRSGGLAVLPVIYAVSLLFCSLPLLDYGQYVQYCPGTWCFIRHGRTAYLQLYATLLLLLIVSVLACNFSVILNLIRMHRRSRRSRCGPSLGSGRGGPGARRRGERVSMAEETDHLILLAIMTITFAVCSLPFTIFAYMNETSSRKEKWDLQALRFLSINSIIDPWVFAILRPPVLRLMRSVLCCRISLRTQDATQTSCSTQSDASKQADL
Protocol: as §1, §2, §3

[2] = molecular target: T3, constitutively active EP2 S305A (Homo sapiens, UniProt P43116, S305A); assay: as above
T3 construct: The full-length EP2 or EP4 was cloned into the pcDNA3.1 vector; FLAG (N); expressed in transfected cells; host or cells: AD293 cells
T3 sequence (P43116 whole entry S305A): as the sequence (P43116 whole entry M116A) above, with A116M, S305A counted along it
Protocol: as §1, §2, §3

[3] = molecular target: T4, constitutively active EP2 S308A (Homo sapiens, UniProt P43116, S308A); assay: as above
T4 construct: The full-length EP2 or EP4 was cloned into the pcDNA3.1 vector; FLAG (N); expressed in transfected cells; host or cells: AD293 cells
T4 sequence (P43116 whole entry S308A): as the sequence (P43116 whole entry M116A) above, with A116M, S308A counted along it
Protocol: as §1, §2, §3

[4] = molecular target: T5, constitutively active EP2 S86A (Homo sapiens, UniProt P43116, S86A); assay: as above
T5 construct: The full-length EP2 or EP4 was cloned into the pcDNA3.1 vector; FLAG (N); expressed in transfected cells; host or cells: AD293 cells
T5 sequence (P43116 whole entry S86A): as the sequence (P43116 whole entry M116A) above, with S86A, A116M counted along it
Protocol: as §1, §2, §3

[5] = molecular target: T6, constitutively active EP2 T82A (Homo sapiens, UniProt P43116, T82A); assay: as above
T6 construct: The full-length EP2 or EP4 was cloned into the pcDNA3.1 vector; FLAG (N); expressed in transfected cells; host or cells: AD293 cells
T6 sequence (P43116 whole entry T82A): as the sequence (P43116 whole entry M116A) above, with T82A, A116M counted along it
Protocol: as §1, §2, §3

[6] = molecular target: T7, constitutively active EP2 W186A (Homo sapiens, UniProt P43116, W186A); assay: as above
T7 construct: The full-length EP2 or EP4 was cloned into the pcDNA3.1 vector; FLAG (N); expressed in transfected cells; host or cells: AD293 cells
T7 sequence (P43116 whole entry W186A): as the sequence (P43116 whole entry M116A) above, with A116M, W186A counted along it
Protocol: as §1, §2, §3

[7] = molecular target: T8, constitutively active EP2 WT (Homo sapiens, UniProt P43116); assay: as above
T8 construct: The full-length EP2 or EP4 was cloned into the pcDNA3.1 vector; FLAG (N); expressed in transfected cells; host or cells: AD293 cells
T8 sequence (P43116 whole entry): as the sequence (P43116 whole entry M116A) above, with A116M counted along it
Protocol: as §1, §2, §3

[8] = molecular target: T9, constitutively active EP4 S319A (Homo sapiens, UniProt P35408, S319A); assay: as above
T9 construct: The full-length EP2 or EP4 was cloned into the pcDNA3.1 vector (Invitrogen), incorporating an N-terminal FLAG tag; expressed in transfected cells; host or cells: AD293
T9 sequence (P35408 whole entry S319A): as the sequence (P35408 whole entry) above, with S319A counted along it
Protocol: as §1, §2, §3

[9] = no PGE2, pIC50 mutant - pIC50 WT, mean

SMILES: CCc1nnc(NS(=O)(=O)c2ccc(NC(=S)NC(=O)/C=C/c3ccc(F)cc3)cc2)s1 [TG6-129]
- remaining activity at 100 µM (EP4 WT; TG6-129 log([M]) -4.00, read-out: % cAMP activity (normalized to WT)): 15.1%
- remaining activity at […] (EP4 WT; TG6-129 log([M]) -4.70, read-out: % cAMP activity (normalized to WT)): 25.9%
- remaining activity at […] (EP4 WT; TG6-129 log([M]) -5.40, read-out: % cAMP activity (normalized to WT)): 86.4%
- remaining activity at […] (EP4 WT; TG6-129 log([M]) -6.10, read-out: % cAMP activity (normalized to WT)): 94.7%
- remaining activity at 0.1585 µM (EP4 WT; TG6-129 log([M]) -6.80, read-out: % cAMP activity (normalized to WT)): 90.5%
- remaining activity at 0.03236 µM (EP4 WT; TG6-129 log([M]) -7.49, read-out: % cAMP activity (normalized to WT)): 87.9%
- remaining activity at 0.006457 µM (EP4 WT; TG6-129 log([M]) -8.19, read-out: % cAMP activity (normalized to WT)): 104%
- remaining activity at 0.001288 µM (EP4 WT; TG6-129 log([M]) -8.89, read-out: % cAMP activity (normalized to WT)): 109%
- remaining activity at 100 µM (EP4 WT; read-out: % cAMP activity EP4 (normalized to Grapiprant), ligand log([M]) -4.00, single experiments 1st-3rd, Fig. S1A): 15.1%
- remaining activity at […] (EP4 WT; read-out: % cAMP activity EP4 (normalized to Grapiprant), ligand log([M]) -4.70, single experiments 1st-3rd, Fig. S1A): 25.9%
- remaining activity at […] (EP4 WT; read-out: % cAMP activity EP4 (normalized to Grapiprant), ligand log([M]) -5.40, single experiments 1st-3rd, Fig. S1A): 86.4%
- remaining activity at […] (EP4 WT; read-out: % cAMP activity EP4 (normalized to Grapiprant), ligand log([M]) -6.10, single experiments 1st-3rd, Fig. S1A): 94.7%
- remaining activity at 0.1585 µM (EP4 WT; read-out: % cAMP activity EP4 (normalized to Grapiprant), ligand log([M]) -6.80, single experiments 1st-3rd, Fig. S1A): 90.5%
- remaining activity at 0.03236 µM (EP4 WT; read-out: % cAMP activity EP4 (normalized to Grapiprant), ligand log([M]) -7.49, single experiments 1st-3rd, Fig. S1A): 87.9%
- remaining activity at 0.006457 µM (EP4 WT; read-out: % cAMP activity EP4 (normalized to Grapiprant), ligand log([M]) -8.19, single experiments 1st-3rd, Fig. S1A): 104%
- remaining activity at 0.001288 µM (EP4 WT; read-out: % cAMP activity EP4 (normalized to Grapiprant), ligand log([M]) -8.89, single experiments 1st-3rd, Fig. S1A): 109%
- cAMP activity (∆pIC50 from EP4 WT) (EP4 WT; TG6-129, WT, single experiments 1st-3rd): 0.138 and 0.074 and -0.140
- IC50 [1]: 490 nM
- remaining activity at 1 µM ([1]; 1 h, TG6-129 log([M]) -6, EP2-M116A, read-out: % cAMP activity (normalized to WT)): 94.8%
- TG6-129 cAMP activity (∆pIC50 from EP2 WT), Mean ([1]; M116A, Mean): -0.618
- TG6-129 cAMP activity (∆pIC50 from EP2 WT) ([1]; M116A, single experiments 1st-3rd): -0.597 and -0.614 and -0.642
- ΔpIC50 [1, 9]: -0.62 ± 0.01
- IC50 [2]: 50.1 nM
- TG6-129 cAMP activity (∆pIC50 from EP2 WT), Mean ([2]; S305A, Mean): 0.384
- ΔpIC50 [2, 9]: 0.38 ± 0.10
- IC50 [3]: 58.9 nM
- remaining activity at 0.0001 µM ([3]; 1 h, TG6-129 log([M]) -10, EP2-S308A, read-out: % cAMP activity (normalized to WT)): 87.7%
- TG6-129 cAMP activity (∆pIC50 from EP2 WT), Mean ([3]; S308A, Mean): 0.246
- IC50 [4]: 603 nM
- TG6-129 cAMP activity (∆pIC50 from EP2 WT), Mean ([4]; S86A, Mean): -0.670
- TG6-129 cAMP activity (∆pIC50 from EP2 WT) ([4]; S86A, single experiments 1st-3rd): -0.744 and -0.540 and -0.726
- ΔpIC50 [4, 9]: -0.67 ± 0.07
- IC50 [5]: 219 nM
- TG6-129 cAMP activity (∆pIC50 from EP2 WT), Mean ([5]; T82A, Mean): -0.316
- TG6-129 cAMP activity (∆pIC50 from EP2 WT) ([5]; T82A, single experiments 1st-3rd): -0.298 and -0.466 and -0.185
- IC50 [6]: 3630 nM
- remaining activity at 0.1 µM ([6]; 1 h, TG6-129 log([M]) -7, EP2-W186A, read-out: % cAMP activity (normalized to WT)): 91.6%
- remaining activity at 0.0001 µM ([6]; 1 h, TG6-129 log([M]) -10, EP2-W186A, read-out: % cAMP activity (normalized to WT)): 92.4%
- remaining activity at 10 pM ([6]; 1 h, TG6-129 log([M]) -11, EP2-W186A, read-out: % cAMP activity (normalized to WT)): 99.9%
- remaining activity at 1 pM ([6]; 1 h, TG6-129 log([M]) -12, EP2-W186A, read-out: % cAMP activity (normalized to WT)): 97.8%
- TG6-129 cAMP activity (∆pIC50 from EP2 WT), Mean ([6]; W186A, Mean): -1.465
- ΔpIC50 [6, 9]: -1.47 ± 0.16
- IC50 [7]: 87.1 nM
- remaining activity at 10 µM ([7]; 1 h, TG6-129 log([M]) -5, EP2-WT, read-out: % cAMP activity (normalized to WT)): 3.2%
- remaining activity at 1 µM ([7]; 1 h, TG6-129 log([M]) -6, EP2-WT, read-out: % cAMP activity (normalized to WT)): 6.32%
- remaining activity at 0.1 µM ([7]; 1 h, TG6-129 log([M]) -7, EP2-WT, read-out: % cAMP activity (normalized to WT)): 34.4%
- remaining activity at 0.001 µM ([7]; 1 h, TG6-129 log([M]) -9, EP2-WT, read-out: % cAMP activity (normalized to WT)): 94.3%
- remaining activity at 0.0001 µM ([7]; 1 h, TG6-129 log([M]) -10, EP2-WT, read-out: % cAMP activity (normalized to WT)): 104%
- remaining activity at 10 pM ([7]; 1 h, TG6-129 log([M]) -11, EP2-WT, read-out: % cAMP activity (normalized to WT)): 100%
- remaining activity at 1 pM ([7]; 1 h, TG6-129 log([M]) -12, EP2-WT, read-out: % cAMP activity (normalized to WT)): 88.6%
- TG6-129 cAMP activity (∆pIC50 from EP2 WT) ([7]; WT, single experiments 1st-3rd): -0.062 and 0.053 and 0.096
- IC50 [8]: 20000 nM
- remaining activity at 100 µM ([8]; 1 h, TG6-129 log([M]) -4.00, EP4-S319A, read-out: % cAMP activity (normalized to WT)): 6.8%
